B1: BMP4: angiogenic growth factor, bone morphogenetic protein-4 (protein, UniProt P12644 293-408, looked up)
Bone morphogenetic protein 4: SPKHHSQRARKKNKNCRRHSLYVDFSDVGWNDWIVAPPGYQAFYCHGDCPFPLADHLNSTNHAIVQTLVNSVNSSIPKACCVPTELSAISMLYLDEYDKVVLKNYQEMVVEGCGCR

Test system: hPSCs
Test: sequential differentiation of hPSCs into endothelial cells on collagen IV, EC marker expression by flow cytometry / immunofluorescence
Type: cell-based, human
Procedure: In the inventive method, hPSCs were cultured at a concentration of 1.25×10^4 per cm^2 on collagen IV plates for 12 days. In the “direct” method, the cells were treated with VEGF for the entire time. With the “sequential” method, the cells were supplemented with 10% serum and were not treated with VEGF until day 6. See FIG. 1 for a comparison of the protocols.
In our sequential method, hPSCs were cultured on collagen IV plates in media supplemented with 10% serum. After 6 days in culture, cells were strained and re-cultured in media supplemented with 50 ng/ml vascular endothelial growth factor (VEGF). Cells which were differentiated via direct means were cultured in the VEGF-supplemented media for all 12 days. EC markers were examined via immunofluorescence microscopy and flow cytometry. We tested hESC line, H9, as well as hiPSC line, MR31, which was derived from normal, fetal fibroblasts using three factors, Oct-4, Sox2, Klf4 (8, 9).
However, because sequentially-derived cells were only ˜5% VEcad+, we sought to improve upon the differentiation efficiency via biochemical means. To this end, we studied the addition of a TGFβ inhibitor, SB431542 (10) as well as angiogenic growth factors, bone morphogenetic protein-4 (BMP4) and Indian Hedgehog (lhh). For our TGFβ inhibitor studies, we examined the effects of SB431542 in the second half of differentiation plus high (50 ng/ml) or low (1 ng/ml) VEGF. […] Remarkably, VEcad expression increased regardless of high or low VEGF concentrations. […] Cells expressed approximately 1% Tra-1-60 indicating they were fully differentiated.

[1] = added in the second half of sequential differentiation plus VEGF, 12 days in culture

Molecule | Expression of CD31 [1] | Expression of KDR [1] | expression of mature EC marker, VEcad (added in the second half of sequential differentiation plus high (50 ng/ml) or low (1 ng/ml) VEGF, 12 days in culture) | endothelial differentiation capacity (compared with levels seen with SB431542 supplementation)
NC(=O)c1ccc(-c2nc(-c3ccc4c(c3)OCO4)c(-c3ccccn3)[nH]2)cc1 [SB431542] | increased | increased | dramatic increase | 
B1 |  |  |  | not able to augment

Reference: US20180171291A1, “DERIVATION OF ENDOTHELIAL CELLS FROM MAMMALIAN PLUIRPOTENT STEM CELLS” (THE JOHNS HOPKINS UNIVERSITY, priority 2012, published 2018)
